Measured values as given in patent publication US20260225998A1, “NEW COMPOUNDS FOR TREATING STREPTOCOCCUS INFECTIONS” (AB2 THERAPEUTICS, S. L., priority 2023, published 2026).
In brackets after ≈: the same amount, converted by molar mass.

Key:
Streptococcus pneumoniae = experiment: MIC test, microdilution method (CLSI); type: cell-based; conditions: ATCC strain of Streptococcus pneumoniae, 18-20 h at 37° C., MIC = concentration at which growth inhibited ≥80%, read-out: Activity (MIC) Spn
Procedure: (§1) Experimental Procedure: MIC Test. Microdilution Method
(§2) To evaluate the antimicrobial activity of the compounds, ATCC strains of Streptococcus pneumoniae and Streptococcus pyogenes were used. The minimal inhibitory concentrations (MICs) of the compounds were determined by microdilution assays, according to CLSI methodology.
(§3) 3 mg of compound were weighted in a 4 mL glass vials and were dissolved in properly volume of DMSO 100% (Reference: D2438-50, Sigma) to reach 12.8 mg/mL. (Cmax.).
(§4) In 96-well plates U-form (Reference: 650161, Greiner Bio-One): • Dispense 50 μL of the assayed compounds prepared in DMSO 100% at 12.8 mg/mL in each well in column 1. (8 different compounds per plate, row 1 to row 8) • Dispense 25 μL of DMSO 100% in all wells in columns 2 to 12. • With a multichannel pipette, aspire 25 μL of column 1 and dispense in column 2. Mix the contents in column 2 several times and aspire 25 uL. Dispense in column 3. • Repeat the process until column 10. In column 10, aspire 25 μL of the content and discard. • The final mother plate map is (all values in mg/mL)
(§5) In 96-well plates U-form: • With a multichannel pipette (in dispensing mode), aspire a properly volume (consider the number of copies of the mother plate do you want to perform) of all wells in mother plate, to dispense 1 μL/well in daughter plates.
(§6) Bacterial suspension will be prepared and normalized to 0.5 McFarland turbidity standard (approximately 10^8 CFU/mL) using a physiological saline solution (sodium chloride 0,9%). Then, prepared a 1/1000 dilution (approximately 10^5 CFU/mL) of the suspension in appropriate media (CLSI Standard) and inoculate 99 μL in each well in daughter plates (only columns 1 to 11) using a multidrop™ Combi Reagent Dispenser. In column 12, only 99 μL of media will be dispense as a sterility control.
(§7) The final plate map is (all values in μg/mL):
(§8) Plates will be incubated 18-20 h at 37° C. MIC values will be considered as the concentration of compounds at which the growth will be inhibited=>≥80%, compared to growth control.

Streptococcus pyogenes = experiment: MIC test, microdilution method (CLSI); type: cell-based; conditions: ATCC strain of Streptococcus pyogenes, 18-20 h at 37° C., MIC = concentration at which growth inhibited ≥80%, read-out: Activity (MIC) Spy
Procedure: as §1, §2, §3, §4, §5, §6, §7, §8

Row | SMILES | MIC (Streptococcus pneumoniae) [mg/L] | MIC (Streptococcus pyogenes) [mg/L]
1 | CNC(=O)[C@@H](O)CNC(=O)c1ccc(O[C@@H](CC2CCCCC2)c2cccc(-c3ccc(C(F)(F)F)cc3)c2)cc1 [Example 8, 4-((S)-2-cyclohexyl-1-(4′-(trifluoromethyl)-[1,1′-biphenyl]-3-yl)ethoxy)-N-((S)-2-hydroxy-3-(methylamino)-3-oxopropyl)benzamide] | 4 (≈ 7.03 µM) | 4 (≈ 7.03 µM)
2 | NC(=O)[C@@H](O)CNC(=O)c1ccc(O[C@@H](CC2CCCCC2)c2ccc(-c3ccc(F)cc3)cc2)cc1 [Example 1, N-((S)-3-Amino-2-hydroxy-3-oxopropyl)-4-((S)-2-cyclohexyl-1-(4′-fluoro-[1,1′-biphenyl]-4-yl)ethoxy)benzamide] | 4 (≈ 7.93 µM) | 4 (≈ 7.93 µM)
3 | CC(C)C[C@H](Oc1ccc(C(=O)NC[C@H](O)C(N)=O)cc1)c1ccc(-c2ccc(C(F)(F)F)cc2)cc1 [Example 5, N-((S)-3-amino-2-hydroxy-3-oxopropyl)-4-((S)-3-methyl-1-(4′-(trifluoromethyl)-[1,1′-bipheny]-4-yl)butoxy)benzamide] | > 128 | > 128
4 | NC(=O)[C@@H](O)CNC(=O)c1ccc(O[C@@H](CC2CCOCC2)c2ccc(-c3ccc(C(F)(F)F)cc3)cc2)cc1 [Example 4, N-((S)-3-amino-2-hydroxy-3-oxopropyl)-4-((S)-2-(tetrahydro-2H-pyran-4-yl)-1-(4′-(trifluoromethyl)-[1,1′-biphenyl]-4-yl)ethoxy)benzamide] | > 128 | > 128
5 | CC(C)[C@H](Oc1ccc(C(=O)NC[C@H](O)C(N)=O)cc1)c1ccc(-c2ccc(C(F)(F)F)cc2)cc1 [Example 6, N-((S)-3-amino-2-hydroxy-3-oxopropyl)-4-((S)-2-methyl-1-(4′-(trifluoromethyl)-[1,1′-biphenyl]-4-yl)propoxy)benzamide] | 4 (≈ 7.99 µM) | 4 (≈ 7.99 µM)
6 | NC(=O)[C@@H](O)CNC(=O)c1ccc(O[C@@H](CC2CCCCC2)c2cccc(-c3ccc(C(F)(F)F)cc3)c2)cc1 [Example 2, N-((S)-3-Amino-2-hydroxy-3-oxopropyl)-4-((S)-2-cyclohexyl-1-(4′-(trifluoromethyl)-[1,1′-biphenyl]-3-yl)ethoxy)benzamide] | 2 (≈ 3.61 µM) | 1 (≈ 1.8 µM)
